Data taken from PMC8018653, “Gender-based differences in brain and plasma pharmacokinetics of letrozole in sprague-dawley rats: Application of physiologically-based pharmacokinetic modeling to gain quantitative insights” (PLoS ONE, 2021).
Values joined by “and” are separate entries in the source; they are usually repeats but may differ in a detail not shown here. Equal entries are not always repeated. “Also recorded” adds a separate entry of the source. Where two headings read alike, the source gives them in different places. Marks after values point to notes of the source that are not given here.

Tests used:
C6 orthotopic tumor = test system: C6 orthotopic tumor; parameters: method as in PMID 25695958; conditions: C6 orthotopic glioma, rats, 4 mg/kg; cited from earlier work
[1] = parameters: method as in PMID 23712697; conditions: in situ mouse brain perfusion; cited from earlier work
[2] = In vivo unbound fraction in brain (brain ECF / whole brain tissue homogenate); conditions: Sprague-Dawley, rat, ip, healthy and tumor-bearing female rats, 4 mg/kg i.p., ~6 hrs, mean ± SD, read-out: Fraction unbound in brain (fu, brain)
Source text: Simcyp Animal Simulator V17 (Certara Inc.) was employed for developing a bottom-up whole body PBPK model incorporating the specified multi-compartment brain model. Based on its anatomy and physiology, the whole brain is described by three compartments, viz. brain blood, brain mass and cerebrospinal fluid (CSF) as illustrated in Fig 1 (Simcyp® Rat Simulator). For model development, the physiological/ system-specific parameters were inferred from the existing rodent species within the animal simulator while, the key drug- specific parameters used are summarized in Table 1. Briefly, all the physiochemical and binding to blood components (plasma proteins and erythrocytes) parameters of letrozole were derived from expansive literature review. […] Full-PBPK model was employed for drug distribution while the Rodgers and Rowland method or “Method 2”, as defined in Simcyp v17, predicted the volume of distribution (Vss). For the multi-compartment brain model, the passive permeability-surface area product on the BBB (PSB) was determined using the Crone- Renkin Equation [25, 26]: PSB=−Fpfln(1−Kin/Fpf) (3) where, Fpf is the cerebral blood or perfusion flow rate and Kin is the brain uptake clearance. […] The fu, brain for letrozole was experimentally determined in both healthy and tumor-bearing female Sprague-Dawley rats (N = 4/ group).

[3] = parameters: method as in PMID 11501174; conditions: cited from earlier work; for CLpo: assuming 250 g average body weight
[4] = PBPK input; ref Chemicalize database; cited from earlier work
[5] = Steady state brain ECF pharmacokinetics by intracerebral microdialysis; conditions: for Kp uu at 264 h / Kp uu / Kp uu at 120 h: intraperitoneal; for Kp uu at 264 h: 11 days; for Kp uu: Kpuu, range over single dose and steady state (Cmax and AUC0-12); for Kp uu at 120 h: 5 days
Protocol: The average in vitro relative recovery of letrozole was determined at a flow rate of 2.0 μ1/min at 35°C.
Microdialysis probes were surgically implanted in jugular vein cannulated rats under anesthesia (ketamine/ xylazine 70/ 6 mg/kg i.p., Henry Schein, NY) one day prior to the experiment. Buprenorphine (Buprenex®, Henry Schein, NY) was administered for perioperative analgesia. The probe was inserted into the striatum with the following tip coordinates: A/P, 1.2 mm, L, 3.1 mm, and D/V −7.8 mm, according to the stereotaxic atlas of Paxinos and Watson [21]. The active portion of the membrane for the probes was 4.5 mm. Following implantation, the probes were connected to an infusion pump set to deliver modified Dulbecco’s phosphate buffered saline containing 1.2 mm CaCl2 and 5 mM glucose at a flow rate of 1 μl/min overnight.
To establish the steady state, letrozole was administered via the intraperitoneal route at a dose of 4mg/kg o.d for 11 days (female rats) and 5 days (male rats) based on the previously published data and our preliminary experiments. On the day of the experiment (last day of dosing), blood and dialysis samples were collected concurrently as described above at the following time points- pre-dose, 1, 2, 4, 6, 8 and12 h post administration. An additional 24 hr time point was included in the plasma sample collection and all the samples were stored at -80°C until analyzed.
Three sets of calibration plots were constructed for method validation.
Non-compartmental analysis (NCA) was performed using Phoenix WinNonlin® software (version 6.2.1, Pharsight, St. Louis, MO, USA) and the PK parameters determined included peak concentration (Cmax), time to reach peak concentration (Tmax), area under the concentration-time curve between time zero to the last observed concentration time point (AUC0- t) and the elimination half-life (t1/2). Actual sampling times were employed for calculations except for the pre-dose times, which were kept as zero. Since the blood sampling period spanned less than 4.5 half-lives in female rats, plasma AUC0-∞ values could not be determined reliably. Consequently, we were constrained to reporting AUC0-t values for letrozole in this study which was calculated using the linear trapezoidal method. For consistency, only AUC0-t values were reported for male rats as well. Cmax and Tmax values were obtained directly from the concentration-time data. […] Brain ECF concentrations were time-averaged over the collection interval and were corrected for the observed relative recovery. The brain-to-plasma unbound partition coefficients (Kpuu) were calculated as a ratio of the Cmax or AUC0-12 of letrozole levels in the brain ECF to corresponding plasma Cmax and AUC values corrected for plasma protein binding.

[6] = cited from earlier work
[7] = parameters: method as in PMID 17045772; conditions: rat liver microsomes; cited from earlier work
[8] = Single dose brain ECF pharmacokinetics by intracerebral microdialysis; assay type: in vivo, Sprague-Dawley rats; conditions: single dose 4 mg/kg i.p.; for Tmax / AUC(0-t) / Kp uu: Sprague-Dawley, rat, ip; for Tmax / AUC(0-t): brain ECF (striatal microdialysate); for AUC(0-t): read-out: AUC 0–12, brain ECF; for Cmax, brain ECF / Kp uu: 4 mg/kg; for Kp uu: brain ECF / unbound plasma
Protocol: Within 10 minutes of collection, plasma was separated by centrifugation of the blood samples at 4,000 rpm for 15 min. Microdialysis samples were collected simultaneously through the probes at the same time points from 0–12 hours.

[9] = Passive permeability-surface area products by Crone-Renkin equation
Source text: Simcyp Animal Simulator V17 (Certara Inc.) was employed for developing a bottom-up whole body PBPK model incorporating the specified multi-compartment brain model. Based on its anatomy and physiology, the whole brain is described by three compartments, viz. brain blood, brain mass and cerebrospinal fluid (CSF) as illustrated in Fig 1 (Simcyp® Rat Simulator). For model development, the physiological/ system-specific parameters were inferred from the existing rodent species within the animal simulator while, the key drug- specific parameters used are summarized in Table 1. Briefly, all the physiochemical and binding to blood components (plasma proteins and erythrocytes) parameters of letrozole were derived from expansive literature review. […] Full-PBPK model was employed for drug distribution while the Rodgers and Rowland method or “Method 2”, as defined in Simcyp v17, predicted the volume of distribution (Vss). For the multi-compartment brain model, the passive permeability-surface area product on the BBB (PSB) was determined using the Crone- Renkin Equation [25, 26]: PSB=−Fpfln(1−Kin/Fpf) (3) where, Fpf is the cerebral blood or perfusion flow rate and Kin is the brain uptake clearance. […] The passive permeability-surface area product on the blood-cerebrospinal fluid barrier (BCSFB), PSC, was assumed as half of the PSB [19, 27] while the passive permeability-surface area product on the cerebrospinal fluid-brain barrier (CSFBB), PSE, was set at 80 mL/min, assuming a high permeability of this barrier. Brain ECF concentrations were predicted using the in vivo unbound fraction in the brain (fu, brain) for letrozole multiplied by the simulated total brain concentrations. The fu, brain for letrozole was experimentally determined in both healthy and tumor-bearing female Sprague-Dawley rats (N = 4/ group).

[10] = parameters: method as in PMID 30357450; conditions: NSG mice; cited from earlier work

N#Cc1ccc(C(c2ccc(C#N)cc2)n2cncn2)cc1 [letrozole]
in vivo efficacy (tumor mass / volume) (C6 orthotopic tumor): marked reduction in the tumor mass; also recorded: marked reduction in tumor volume
Kin (brain uptake clearance) [1]: 0.422 ± 0.068 mL/min/g brain
fraction unbound [2]: 0.58
Fa ([3]; PBPK input): 0.99
CLpo ([3]; females): 0.21 mL/min
CL ([3]; females): 0.85 mL/min/kg
Ka (first-order rate of absorption) ([3]; females): 0.49 h⁻¹
CLpo ([3]; males): 0.77 mL/min
CL ([3]; males): 3.08 mL/min/kg
Ka (first-order rate of absorption) ([3]; males): 0.29 h⁻¹
Intrinsic solubility [4]: 62 µg/mL
logP [4]: ≈ 2.5
accumulation at steady state (brain ECF Cmax and AUC0-12) ([5]; female rats): 3.5 to 4.0 fold
predicted steady state average concentration, brain ECF ([5]; female rats): ~1,000 ng/ml
Rac brain (observed accumulation ratio, AUC0-12) ([5]; female rats, Day 11 / Day 1): 4.2
Rac brain (observed accumulation ratio, Cmax) ([5]; female rats, Day 11 / Day 1): 3.5
Kp uu at 264 h ([5]; female, Sprague-Dawley, rat, brain ECF / unbound plasma, 4 mg/kg, Kpuu (AUC0-12 brain ECF / plasma unbound), female rats, steady state): 1.3
Kp uu at 264 h ([5]; female, Sprague-Dawley, rat, brain ECF / unbound plasma, 4 mg/kg, Kpuu (Cmax brain ECF / plasma unbound), female rats, steady state): 1.2
Kp uu ([5]; female, Sprague-Dawley, rat, brain ECF / unbound plasma, 4 mg/kg, female rats): 1.2 to 1.4
accumulation at steady state (brain ECF Cmax and AUC0-12) ([5]; male rats): 2.0 fold
predicted steady state average concentration, brain ECF ([5]; male rats): ~210 ng/mL
Rac brain (observed accumulation ratio, AUC0-12) ([5]; male rats, Day 5 / Day 1): 2.0
Rac brain (observed accumulation ratio, Cmax) ([5]; male rats, Day 5 / Day 1): 1.9
Cmax, brain ECF ([5]; male rats, steady state, 4 mg/kg i.p. daily for 5 days, 4 mg/kg): 490 ± 240 ng/ml and 490 (240) ng/ml and 490 ng/ml
Kp uu at 120 h ([5]; male, Sprague-Dawley, rat, brain ECF (striatal microdialysate) / unbound plasma, 4 mg/kg, Kpuu (AUC0-12 brain ECF / plasma unbound), male rats, steady state): 0.9
Tmax ([5]; male, Sprague-Dawley, rat, brain ECF (striatal microdialysate), ip, 4 mg/kg): 3.3 h
AUC(0-t) ([5]; male, Sprague-Dawley, rat, brain ECF (striatal microdialysate), ip, 4 mg/kg, AUC 0–12, brain ECF, male rats, steady state, 4 mg/kg i.p. daily for 5 days): 4820 ng·h/mL
AUC(0-t) ([5]; male, Sprague-Dawley, rat, brain ECF (striatal microdialysate), ip, 4 mg/kg, brain ECF AUC 0–12, male rats, steady state, 4 mg/kg i.p. daily for 5 days): 4800 ng·h/mL
Kp uu at 120 h ([5]; male, Sprague-Dawley, rat, brain ECF / unbound plasma, 4 mg/kg, Kpuu (Cmax brain ECF / plasma unbound), male rats, steady state): 0.9
Kp uu ([5]; male, Sprague-Dawley, rat, brain ECF / unbound plasma, 4 mg/kg, male rats): 0.6 to 0.9
brain ECF exposure (Cmax, AUC0-12), higher in female rats ([5]; steady state): 4.7 to 5 fold
Blood-to-plasma partition ratio ([6]; PBPK input, ref CDER NDA 20–726): 0.8
plasma protein binding [6]: ≈ 60%
overall intrinsic clearance and formation rate of the carbinol metabolite, male versus female rats [7]: about 3.0 fold
Tmax ([8]; female rats): 6.9 h
AUC(0-t) ([8]; female rats): 5750 ng·h/mL
Tmax ([8]; male rats): 4.7 h
AUC(0-t) ([8]; male rats): 2410 ng·h/mL
Cmax, brain ECF ([8]; female rats): 660 ± 260 ng/ml and 660 (260)* ng/ml and 660 ng/ml
Kp uu ([8]; female, female rats, read-out: Kpuu (AUC0-12 brain ECF / plasma unbound)): 1.3
Kp uu ([8]; female, female rats, read-out: Kpuu (Cmax brain ECF / plasma unbound)): 1.4
Cmax, brain ECF ([8]; male rats): 260 ± 80 ng/ml and 260 (80) ng/ml and 260 ng/ml
Kp uu ([8]; male, male rats, read-out: Kpuu (AUC0-12 brain ECF / plasma unbound)): 0.6
Kp uu ([8]; male, male rats, read-out: Kpuu (Cmax brain ECF / plasma unbound)): 0.6
brain ECF AUC0-12, female versus male difference [8]: 2.4 fold
brain ECF Cmax, female versus male difference [8]: 2.5 fold
PSC (passive permeability-surface area product on the BCSFB) ([9]; Assumed to be half of PSB): 0.42 mL/min
PSB (passive permeability-surface area product on the BBB) ([9]; Determined using Eq (3), assuming 1800 mg brain weight): 0.84^b mL/min
PSB ([9]; Eq (3)): bBased on PSB = 0.469 mL/min/g brain weight, assuming 1800 mg brain weight.
half-life [10]: ~ 3 hrs
